12 compounds from paper PMC8667043, “First-in-Class Inhibitors of the Ribosomal Oxygenase MINA53” (Journal of Medicinal Chemistry, 2021) can be followed below.

Broadly, the IC50 is the midpoint of a concentration-inhibition curve.

Assay type in all cases: biochemical
For experiment [1], the target named is T1, NO66 (Homo sapiens, UniProt Q9H6W3).
T1 construct: histidine tag (TEV-cleavable) (cleaved yes); made in house; host or cells: E. coli BL21(DE3)-R3-pRARE2
T1 sequence (Q9H6W3 183-641): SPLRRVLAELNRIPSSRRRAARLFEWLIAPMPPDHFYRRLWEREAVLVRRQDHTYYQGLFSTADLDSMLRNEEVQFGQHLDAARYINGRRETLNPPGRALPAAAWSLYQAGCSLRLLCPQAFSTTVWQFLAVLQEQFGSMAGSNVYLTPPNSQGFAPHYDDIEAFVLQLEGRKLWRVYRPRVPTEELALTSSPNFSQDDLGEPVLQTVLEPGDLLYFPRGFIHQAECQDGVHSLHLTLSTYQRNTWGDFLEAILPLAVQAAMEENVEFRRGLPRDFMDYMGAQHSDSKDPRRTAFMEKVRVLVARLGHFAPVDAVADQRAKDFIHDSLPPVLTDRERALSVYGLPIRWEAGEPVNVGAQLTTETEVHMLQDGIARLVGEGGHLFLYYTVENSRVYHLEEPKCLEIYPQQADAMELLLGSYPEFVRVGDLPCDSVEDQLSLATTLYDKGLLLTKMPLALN
The experiment in a line: NO66 MS (RapidFire) hydroxylation inhibition assay, Rpl8 peptide. As to conditions: for IC50: IC50 NO66 (300 nM), MS based, enzyme 300 nM, means ± SD of at least three experiments.

Experiment [2] deals with T2, MINA53 (Homo sapiens, UniProt Q8IUF8).
T2 construct: MINA53 (Met1-Val464 and Ala26-Val464); histidine tag (TEV-cleavable) (cleaved yes); made in house; host or cells: E. coli BL21(DE3)-R3-pRARE2
T2 sequence (Q8IUF8 1-464 isoform Q8IUF8-4): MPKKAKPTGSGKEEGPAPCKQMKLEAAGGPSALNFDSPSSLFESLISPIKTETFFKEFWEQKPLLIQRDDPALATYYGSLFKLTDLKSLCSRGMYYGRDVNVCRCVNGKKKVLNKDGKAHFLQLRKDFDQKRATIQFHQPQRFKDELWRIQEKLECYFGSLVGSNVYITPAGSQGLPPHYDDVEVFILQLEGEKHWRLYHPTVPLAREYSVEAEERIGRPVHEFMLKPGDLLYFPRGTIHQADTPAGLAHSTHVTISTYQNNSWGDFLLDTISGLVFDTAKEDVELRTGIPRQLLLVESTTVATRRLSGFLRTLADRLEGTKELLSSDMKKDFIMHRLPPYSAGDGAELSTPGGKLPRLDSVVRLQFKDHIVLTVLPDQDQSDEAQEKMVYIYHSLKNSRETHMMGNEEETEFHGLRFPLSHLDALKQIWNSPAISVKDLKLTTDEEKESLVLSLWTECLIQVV
The experiment in a line: MINA53 MS (RapidFire) hydroxylation inhibition assay, Rpl27a peptide. As to conditions: for IC50: MS based, enzyme 150 nM, means ± SD of at least three experiments, read-out: IC50 MINA53 (150 nM); for preferential inhibition of MINA53 over all other tested 2OG oxygenases: worst case of the panel of Table 1.

Experiment [3] has as its target T3, KDM4A (Homo sapiens, UniProt O75164).
T3 construct: (M1- N-terminal R1641) His6-tagged N-terminal His6-tagged L359); made in house; host or cells: E. coli
T3 sequence (O75164 1-359): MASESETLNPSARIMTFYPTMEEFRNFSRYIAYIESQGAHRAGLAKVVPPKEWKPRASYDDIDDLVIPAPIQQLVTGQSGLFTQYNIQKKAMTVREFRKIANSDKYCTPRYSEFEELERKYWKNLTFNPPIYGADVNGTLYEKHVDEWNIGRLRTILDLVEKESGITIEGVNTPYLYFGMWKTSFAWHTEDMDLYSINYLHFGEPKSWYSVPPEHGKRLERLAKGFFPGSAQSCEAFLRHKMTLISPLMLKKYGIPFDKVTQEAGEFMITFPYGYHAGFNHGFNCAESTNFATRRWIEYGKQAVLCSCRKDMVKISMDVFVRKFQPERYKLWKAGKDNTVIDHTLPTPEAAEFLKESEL
As to the kind of experiment: AlphaScreen KDM inhibition assay. As to conditions: read-out: IC50 KDM4A (4 nM), enzyme 4 nM, means ± SD. On the technique in general: In Alpha technology, singlet oxygen from a donor bead excites a nearby acceptor bead.

Experiment [4] concerns the target T4, KDM4D (Homo sapiens, UniProt Q6B0I6).
T4 construct: (M1-G373); His6 (N); made in house; host or cells: E. coli
T4 sequence (Q6B0I6 1-373): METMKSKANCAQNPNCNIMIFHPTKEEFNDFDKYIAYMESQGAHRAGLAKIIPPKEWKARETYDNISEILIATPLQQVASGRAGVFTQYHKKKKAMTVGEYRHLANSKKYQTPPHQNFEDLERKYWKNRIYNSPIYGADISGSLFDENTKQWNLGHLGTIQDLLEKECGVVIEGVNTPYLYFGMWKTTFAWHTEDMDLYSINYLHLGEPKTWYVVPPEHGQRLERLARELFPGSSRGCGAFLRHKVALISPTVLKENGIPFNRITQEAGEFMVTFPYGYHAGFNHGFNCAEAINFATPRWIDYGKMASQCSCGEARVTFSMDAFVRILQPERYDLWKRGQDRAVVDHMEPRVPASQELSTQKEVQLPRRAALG
The experiment in a line: AlphaScreen KDM inhibition assay. As to conditions: read-out: IC50 KDM4D (2.0 nM), enzyme 2.0 nM, means ± SD.

Experiment [5] has as its target T5, KDM6B (Homo sapiens, UniProt O15054).
T5 construct: (D1141- N-terminal S1761) N-terminal (M1- N-terminal R1641); made in house; host or cells: E. coli
As to the kind of experiment: AlphaScreen KDM inhibition assay. Particulars: read-out: IC50 KDM6B (0.1 nM), enzyme 0.1 nM, means ± SD.

Experiment [6] addresses T6, PCAF (Homo sapiens, UniProt Q92831).
T6 construct: purchased Reaction Biology Corporation, Malvern, PA, USA
As to the kind of experiment: HotSpot KAT assay. Particulars: means ± SD of three experiments, read-out: Residual Enzymatic Activity (%) PCAF. On the procedure: (§1) The ef fects of 1-13 on th e histone lysine acetyltr a nsferas e activity (KAT ) o f p300 and PCAF were
(§2) determined using the HotSpot KAT assay ( Reaction Biology Corporation, Malvern, PA, USA)
(§3) according to the supplier’s procedure. In brief, recombinant form s of catal ytic domains of PCAF
(§4) NaCl, 0.1 mM EDTA, 1 mM DTT, 1 mM PMSF, 1% (v/v) DMSO) fo r 1 h at 30 °C in the presenc e
(§5) or absence of various concentrations of the inhibitors. Histone H3 acetyl ation was assessed by
(§6) liquid scintillation counting using a Tri-Carb 2800TR Liquid Scintillation Analyzer
(§7) (PerkinElmer). Assays at fixed con centration doses were performed in triplicate and analyzed
(§8) using Excel and GraphPad Prism 6.0 software (GraphPad Software Inc., San Diego, CA).

The target of experiment [7] is T7, p300 (Homo sapiens, UniProt Q09472).
T7 construct: purchased Reaction Biology Corporation, Malvern, PA, USA
T7 sequence (Q09472 1284-1673): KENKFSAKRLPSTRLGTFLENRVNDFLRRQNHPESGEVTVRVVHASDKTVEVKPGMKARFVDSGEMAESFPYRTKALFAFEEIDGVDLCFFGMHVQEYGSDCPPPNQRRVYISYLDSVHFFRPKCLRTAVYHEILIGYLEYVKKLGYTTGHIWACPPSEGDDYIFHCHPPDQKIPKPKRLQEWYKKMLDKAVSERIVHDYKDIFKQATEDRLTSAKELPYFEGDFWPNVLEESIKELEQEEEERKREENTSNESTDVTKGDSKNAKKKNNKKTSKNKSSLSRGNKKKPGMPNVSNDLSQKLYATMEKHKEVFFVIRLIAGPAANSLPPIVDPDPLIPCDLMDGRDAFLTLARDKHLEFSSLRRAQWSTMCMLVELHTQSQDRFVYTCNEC
The experiment in a line: HotSpot KAT assay. As to conditions: 100 µM; means ± SD of three experiments; read-out: Residual Enzymatic Activity (%) p300. On the procedure:
as §1, §2, §3, §4, §5, §6, §7, §8

Structures are written as SMILES.

T5 sequence (O15054 1141-1643 limits assumed): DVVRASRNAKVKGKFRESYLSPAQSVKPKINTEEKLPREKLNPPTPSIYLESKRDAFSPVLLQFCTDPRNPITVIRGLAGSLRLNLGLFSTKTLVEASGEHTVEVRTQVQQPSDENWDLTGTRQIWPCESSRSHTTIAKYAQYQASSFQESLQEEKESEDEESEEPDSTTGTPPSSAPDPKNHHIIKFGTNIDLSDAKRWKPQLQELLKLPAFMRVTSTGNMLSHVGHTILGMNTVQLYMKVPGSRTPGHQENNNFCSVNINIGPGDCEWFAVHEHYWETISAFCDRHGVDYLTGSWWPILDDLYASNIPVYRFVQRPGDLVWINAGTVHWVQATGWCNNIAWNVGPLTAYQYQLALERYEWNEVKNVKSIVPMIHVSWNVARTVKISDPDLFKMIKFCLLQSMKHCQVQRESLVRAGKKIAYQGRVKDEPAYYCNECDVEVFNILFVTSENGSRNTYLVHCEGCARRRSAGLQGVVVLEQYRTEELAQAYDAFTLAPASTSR
T6 sequence (Q92831 492-658): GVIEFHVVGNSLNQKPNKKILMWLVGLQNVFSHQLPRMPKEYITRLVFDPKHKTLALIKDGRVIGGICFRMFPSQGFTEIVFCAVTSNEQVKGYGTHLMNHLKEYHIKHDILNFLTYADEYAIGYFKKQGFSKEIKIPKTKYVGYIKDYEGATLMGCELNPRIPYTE

Turning to `O=C(CSc1ncc(C(=O)O)c(=O)[nH]1)c1ccccc1` [compound 8, 2-((2-Oxo-2-phenylethyl)thio)-3,4-dihydro-4-oxopyrimidine-5-carboxylic Acid], the IC50 in experiment [1] came out at 23.5 ± 2 µM; in experiment [2], 3 ± 0.2 µM; in experiment [3] it was 32.8 ± 2.1 µM; in experiment [4] it was 26.7 ± 1.9 µM; in experiment [5], 46.4 ± 3 µM. Besides, the “increase in potency for NO66 (compare 8 with 9)” value in experiment [1] (relative to 9) is on record as greater than 2 fold. Further, the remaining activity at 100 µM in experiment [6] was found to be 103 ± 3.7%; in experiment [7], 106 ± 3.5%.
Turning to `CCCCCSc1ncc(C(=O)O)c(=O)[nH]1` [compound 4, 2-(Pentylthio)-3,4-dihydro-4-oxopyrimidine-5-carboxylic Acid], the IC50 came to 81.2 ± 4 µM in experiment [1]; 4.3 ± 0.4 µM in experiment [2]; 16.5 ± 1.8 µM in experiment [3]; 27.5 ± 2 µM in experiment [4]; 59.7 ± 4 µM in experiment [5]. For the same compound, the remaining activity at 100 µM was determined as 100 ± 2.9% in experiment [6] and 97.7 ± 3% in experiment [7].
Consider `CSc1ncc(C(=O)O)c(=O)[nH]1` [compound 2, 2-(Methylthio)-3,4-dihydro-4-oxopyrimidine-5-carboxylic Acid], for which the IC50 in experiment [1] was 40.2 ± 2 µM; in experiment [2], 3 ± 0.5 µM; in experiment [3], 17.6 ± 2 µM; in experiment [4], 31.9 ± 1 µM; in experiment [5], 71.6 ± 3 µM. Moreover, the “preference for the inhibition of MINA53 over FIH and KDM4A” value in experiment [2] (from IC50 values, different assay conditions) was roughly 5 fold. For the same compound, the remaining activity at 100 µM worked out at 100 ± 2.5% in experiment [6] and 97.8 ± 3% in experiment [7].
As for `O=C(O)c1cnc(SCC2CCCCC2)[nH]c1=O` [compound 6, 2-((Cyclohexylmethyl)thio)-3,4-dihydro-4-oxopyrimidine-5-carboxylic Acid], the IC50 is 182 ± 8 µM in experiment [1]; 5 ± 0.6 µM in experiment [2]; 20.8 ± 2 µM in experiment [3]; 30.3 ± 3 µM in experiment [4]; 38.1 ± 3 µM in experiment [5]. The remaining activity at 100 µM in experiment [6] was found to be 99.2 ± 2.1%; in experiment [7], 104 ± 4.1%.
Consider `O=C(O)c1cnc(SCCCc2ccccc2)[nH]c1=O` [compound 10, 2-((3-Phenylpropyl)thio)-3,4-dihydro-4-oxopyrimidine-5-carboxylic Acid], for which the IC50 in experiment [1] stood at 36.9 ± 2 µM; in experiment [2], 1.5 ± 0.1 µM; in experiment [3], 74.2 ± 4.8 µM; in experiment [4], 59.1 ± 3.9 µM; in experiment [5], 70 ± 4 µM. In addition, the “preferential inhibition of MINA53 over all other tested 2OG oxygenases” value in experiment [2] is given as no less than 20 fold. Also, the remaining activity at 100 µM in experiment [6] worked out at 101 ± 2.7%; in experiment [7], 97.9 ± 2%.
`CCCCSc1ncc(C(=O)O)c(=O)[nH]1` [compound 3, 2-(Butylthio)-3,4-dihydro-4-oxopyrimidine-5-carboxylic Acid]: the IC50 in experiment [1] came out at 163 ± 6 µM; in experiment [2], 13.1 ± 0.8 µM; in experiment [3], 9.1 ± 0.6 µM; in experiment [4], 15.5 ± 0.8 µM; in experiment [5], 43 ± 2 µM. In addition, the figures for the remaining activity at 100 µM in experiment [6] and in experiment [7] were 101 ± 3.7% and 103 ± 2%, respectively.
Turning to `O=C(O)c1c[nH]c(=S)[nH]c1=O` [compound 1], the IC50 in experiment [1] was greater than 200 µM; in experiment [2] it was 208 ± 10 µM; in experiment [3] it was greater than 100 µM; in experiment [4], greater than 100 µM; in experiment [5] it was greater than 100 µM. Further, the remaining activity at 100 µM in experiment [6] came to 99.2 ± 2.7%; in experiment [7] it was 98.7 ± 3%.
`O=C(O)c1cnc(SCc2ccccc2)[nH]c1=O` [compound 7, 2-(Benzylthio)-3,4-dihydro-4-oxopyrimidine-5-carboxylic Acid]: the IC50 turned out to be 48 ± 3 µM in experiment [1]; 3.8 ± 0.2 µM in experiment [2]; 24.6 ± 1.8 µM in experiment [3]; 34.7 ± 1.6 µM in experiment [4]; 74.6 ± 2 µM in experiment [5]. Also, the “preferential inhibition of MINA53 over all other tested 2OG oxygenases” value in experiment [2] is on record as no less than 5 fold. The remaining activity at 100 µM was found to be 101 ± 2.9% in experiment [6] and 107 ± 3.8% in experiment [7].
As for `O=C(O)/C=C\Sc1ncc(C(=O)O)c(=O)[nH]1` [compound 13, (Z)-2-((2-carboxyvinyl)thio)-3,4-dihydro-4-oxopyrimidine-5-carboxylic Acid], the IC50 in experiment [1] was determined as 100 ± 4 µM; in experiment [2], 6.8 ± 0.5 µM; in experiment [3], 64.1 ± 4 µM; in experiment [4] it was 123 ± 8 µM; in experiment [5], 75.3 ± 7 µM. Besides, the remaining activity at 100 µM in experiment [6] is 104 ± 4.1%; in experiment [7], 107 ± 4.2%.
Turning to `O=C(O)c1cnc(SCCCCc2ccccc2)[nH]c1=O` [compound 11, 2-((4-Phenylbutyl)thio)-3,4-dihydro-4-oxopyrimidine-5-carboxylic Acid], the IC50 in experiment [1] amounted to 22.9 ± 2 µM; in experiment [2] it was 2.4 ± 0.2 µM; in experiment [3], 14.3 ± 1 µM; in experiment [4], 26 ± 1.5 µM; in experiment [5], 45.8 ± 3 µM. Further, the results for the remaining activity at 100 µM in experiment [6] and in experiment [7] were 100 ± 3.7% and 98.6 ± 2.2%, respectively.
In the case of `O=C(O)c1cnc(SCCc2ccccc2)[nH]c1=O` [compound 9, 2-(Phenethylthio)-3,4-dihydro-4-oxopyrimidine-5-carboxylic Acid], the IC50 was 71.7 ± 4 µM in experiment [1]; 1.6 ± 0.2 µM in experiment [2]; 19 ± 1.2 µM in experiment [3]; 30.8 ± 2.2 µM in experiment [4]; 47.4 ± 4 µM in experiment [5]. Further, the figures for the remaining activity at 100 µM in experiment [6] and in experiment [7] were 102 ± 2.1% and 107 ± 4.8%, respectively.
As for `CCOC(=O)/C=C\Sc1ncc(C(=O)O)c(=O)[nH]1` [compound 12, (Z)-2-((3-Ethoxy-3-oxoprop-1-en-1-yl)thio)-3,4-dihydro-4-oxopyrimidine-5-carboxylic Acid], the IC50 in experiment [1] stood at 80.2 ± 5 µM; in experiment [2], 5.4 ± 0.4 µM; in experiment [3], 11.2 ± 0.9 µM; in experiment [4], 22 ± 1.2 µM; in experiment [5] it was 28.6 ± 1.6 µM. Besides, the remaining activity at 100 µM in experiment [6] was 103 ± 2.3%; in experiment [7] it was 104 ± 4.1%.
